Columns and labels:
CFTR channel = molecular target: T1, CFTR channel (Homo sapiens, UniProt P13569, DEL508-508); test: patch clamp chloride currents in tamoxifen-treated cells with CFTR inhibitor; assay type: cell-based; conditions: cells treated with tamoxifen 5 μM for 24 hours, then tamoxifen + CFTR inh (FIG. 3)
T1 construct: having recorded the I/V in cells treated with tamoxifen for 24 hours; endogenous in cells; host or cells: CFBE (F508del/F508del) or IB3-1 (F508del/W1282X) cells
Description: (§1) The chloride currents through the Ca-dependent chloride channels were measured using the patch clamp technique in perforated whole-cell configuration. The whole-cell configuration was obtained not by breaking the membrane below the electrode, but thanks to the action of an ionophore (gramicidin, 10 μg/ml) which, forming pores through the membrane, guarantees electrical continuity between the solution for the electrode and the cytoplasm, while maintaining the cellular integrity. Thus, cytoplasmic components that might be important to the maintenance of channel activity are not removed after dialysis of the cytoplasm with the solution contained in the electrode. […]
(§2) The solution for the electrode contained (mM): 145 KCl, 1 MgCl2, 10 HEPES, pH 7,25. […] The bath solution was hypertonic (measured osmolarity 337 mOsm) with respect to that of the electrode to inhibit the currents activated by swelling, present in the cells used also in isosmolarity conditions of the bath solution (as noted in previously carried out whole-cell experiments).
Finally, in order to evaluate a possible action of tamoxifen on the CFTR channel, having recorded the I/V in cells treated with tamoxifen for 24 hours, the replacement of the solution with one containing tamoxifen and CFTR inh (specific inhibitor of CFTR) (FIG. 3) was carried out.

[1] = system: Ca-dependent chloride channels; test: patch clamp, perforated whole-cell configuration, chloride currents in CF bronchial epithelial cells; assay type: cell-based
Description: Our experiments were carried out on homozygous CFBE cells leading the F508del/F508 del mutation and on IB3-1 cells (immortalized cell line of bronchial epithelium cystic fibrosis cells, which bring F508del/W1282X mutation).
as §1
as §2, with “experiments). […]” for “experiments).”

T1 sequence (P13569 with tags, fused parts or gaps DEL508-508): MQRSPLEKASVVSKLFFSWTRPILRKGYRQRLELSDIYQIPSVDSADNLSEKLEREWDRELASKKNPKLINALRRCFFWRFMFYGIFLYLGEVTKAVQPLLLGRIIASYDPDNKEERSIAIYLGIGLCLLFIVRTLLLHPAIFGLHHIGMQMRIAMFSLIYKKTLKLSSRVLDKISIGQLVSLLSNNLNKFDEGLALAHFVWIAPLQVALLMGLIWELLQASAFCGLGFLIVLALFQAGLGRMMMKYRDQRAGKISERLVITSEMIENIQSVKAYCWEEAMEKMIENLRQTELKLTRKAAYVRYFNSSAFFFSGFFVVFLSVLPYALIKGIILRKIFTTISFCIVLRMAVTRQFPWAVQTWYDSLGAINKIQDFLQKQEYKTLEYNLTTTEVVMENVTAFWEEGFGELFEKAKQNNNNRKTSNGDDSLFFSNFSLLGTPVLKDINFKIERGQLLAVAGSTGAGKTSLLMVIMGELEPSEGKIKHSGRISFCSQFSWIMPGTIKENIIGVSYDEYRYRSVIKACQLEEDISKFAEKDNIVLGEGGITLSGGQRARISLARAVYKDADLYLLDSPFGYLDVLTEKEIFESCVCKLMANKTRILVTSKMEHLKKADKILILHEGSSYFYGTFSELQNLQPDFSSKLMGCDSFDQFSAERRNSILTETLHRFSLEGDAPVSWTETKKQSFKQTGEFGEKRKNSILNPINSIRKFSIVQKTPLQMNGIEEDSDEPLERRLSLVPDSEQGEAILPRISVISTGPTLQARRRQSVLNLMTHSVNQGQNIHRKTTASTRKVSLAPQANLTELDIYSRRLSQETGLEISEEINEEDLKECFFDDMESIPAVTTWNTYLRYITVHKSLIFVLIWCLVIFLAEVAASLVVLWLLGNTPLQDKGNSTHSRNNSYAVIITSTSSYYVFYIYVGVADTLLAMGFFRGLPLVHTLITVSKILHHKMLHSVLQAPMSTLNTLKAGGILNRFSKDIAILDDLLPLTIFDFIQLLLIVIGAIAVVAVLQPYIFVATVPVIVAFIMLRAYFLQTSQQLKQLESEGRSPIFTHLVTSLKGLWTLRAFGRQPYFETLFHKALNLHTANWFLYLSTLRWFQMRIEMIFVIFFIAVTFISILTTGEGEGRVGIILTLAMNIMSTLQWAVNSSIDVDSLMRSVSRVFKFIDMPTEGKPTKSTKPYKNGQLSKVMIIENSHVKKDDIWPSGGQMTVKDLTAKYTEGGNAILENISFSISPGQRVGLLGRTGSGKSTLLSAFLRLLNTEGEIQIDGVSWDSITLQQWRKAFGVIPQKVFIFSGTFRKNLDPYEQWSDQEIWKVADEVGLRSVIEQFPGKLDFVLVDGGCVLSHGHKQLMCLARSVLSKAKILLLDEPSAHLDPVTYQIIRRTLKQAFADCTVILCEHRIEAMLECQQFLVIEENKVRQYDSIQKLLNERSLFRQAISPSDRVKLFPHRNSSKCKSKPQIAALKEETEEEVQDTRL

## CC/C(=C(\c1ccccc1)c1ccc(OCCN(C)C)cc1)c1ccccc1 [tamoxifen]
CFTR channel
  effect on chloride currents in the presence of the inhibitor of CFTR: does not change significantly
[1]; CFBE or IB3-1 cells incubated 40 minutes with tamoxifen 5 μM (FIG. 1)
  current density compared to control conditions: significantly increased
[1]; cells incubated with 5 μM tamoxifen for 24 hours (FIG. 2)
  effect on Ca-dependent chloride currents over time: remains almost unchanged over time

Source: patent US11191738B2, “Use of tamoxifen for the treatment of cystic fibrosis in patients of both sexes” (GB PHARMA S.R.L., priority 2016, dated 2021)
